Seven compounds from patent US6261767A, “Method for the qualitative and quantitative detection of DNA damage” (Societe Francaise de Recherches et d'Investissements (SFRI), priority 1995, dated 2001) can be followed below.

Starred links: 1 amine or outer side, 2 acyl side, 3 side chain; linkers in the order of their positions; H or OH if unused. Positions of bridges follow the written chain, without caps; N, C: chain ends. Non-standard residues stand in square brackets, D forms with d. Residues, ends and D or L forms follow the SMILES beside them. Chains are numbered I, II in the order given. Actinocin(9to1) = Cc1c2oc3c(C)ccc(C(=O)[*:1])c3nc-2c(C(=O)[*:2])c(N)c1=O; NMeV = CN[C@H](C(=O)O)C(C)C; Sar = CNCC(=O)O

The subject of data set [1] is repair activity of extracts from HeLa cells. Nature of the data set: modulation (inhibition) of the repair activity of cellular extracts from HeLa cells on damaged DNA. Type of data set: biochemical. The note with it: FIG. 9. An excerpt:
The invention also provides a process for measuring the effect of modulation and the inhibitive effect of the repair of at least one molecule, which comprises the following steps:
preparation of damaged DNA fixed on a sensitized support,
action of a composition comprising at least one cellular extract having a repair activity on this DNA, said extract containing markers, and conjointly the action of at least one molecule having the power of modulating the repair action,
direct or indirect revelation of the markers that may be incorporated in the DNA, in the case of repair, and
comparative reading relative to a control specimen.
d/ Repair in the presence of a cellular extract and of agents of known type, comprising for example for a volume of reaction medium (RM) of 50 μl:
In the course of the repair step, see FIG. 1D, the molecules for which it is sought to show a modulator effect of the repair can be added. These molecules are preferably diluted in water or in dimethylsulfoxide (DMSO).

Data set [2] has as its system DNA damage generated by hydrogen peroxide. Nature of the data set: inhibition of / antioxidant relative activity (R.A.) against DNA damage by hydrogen peroxide. Format: biochemical. The conditions noted are these: 10 μm metallic chelating agent.
Data set [3] concerns DNA damage generated by methylene blue. Nature of the data set: antioxidant relative activity (R.A.) against DNA damage by photo-activated methylene blue. Format: biochemical. The conditions noted are these: summary of the R.A. table. How it is done:
b/ Methylene blue is known to liberate by photo-activation, one atom of oxygen. For the tests to follow, methylene blue was subjected to radiation with visible light for 20 minutes with two bulb lamps of 100 W, a distance between the lamps and the support plates of 30 cm and a concentration of methylene blue of 50 ng/ml. The step of repair of the damage is carried out according to the information indicated above, with the use of the same reaction medium RM. In the same fashion, the plates, after the action of the reaction medium RM are washed three times with the washing solution indicated above, and incubated 15 minutes with a chemiluminescent substrate ("Lumi-Phos 530"). […] For the second test, with methylene blue, the relative activity RA has been calculated of an antioxidant which is equal to: [formula] in which formula: control RLU corresponds to the value of the signal of methylene blue alone subjected to radiation, test RLU corresponds to the value of the signal of methylene blue subjected to […] radiation plus an antioxidant molecule, and reference RLU corresponds to the value of the signal of the antioxidant molecule alone.

Take `COS(C)(=O)=O` [MMS, methylmethanesulfonate]: the “effectiveness of damage as shown by the repair ratio (before vs after adsorption of DNA)” value with DNA (plasmid 2959 bp) (MMS in contact with DNA before the adsorption step, FIG. 7) is on record as “greater effectiveness of damage”.
For the compound `Cc1c2oc3c(C)ccc(C(=O)N[C@@H]4C(=O)N[C@H](C(C)C)C(=O)N5CCC[C@H]5C(=O)N(C)CC(=O)N(C)[C@@H](C(C)C)C(=O)O[C@@H]4C)c3nc-2c(C(=O)N[C@@H]2C(=O)N[C@H](C(C)C)C(=O)N3CCC[C@H]3C(=O)N(C)CC(=O)N(C)[C@@H](C(C)C)C(=O)O[C@@H]2C)c(N)c1=O` [actinomycin D] (I: T[dV]P[Sar][NMeV] / II: T[dV]P[Sar][NMeV]; ester I:1-I:C, II:1-II:C; linker I:N-II:N via Actinocin(9to1)), the “inhibitor effect on the repair activity” value in data set [1] is given as “dose- dependent inhibitor effect”.
Still for that read-out and setting: to `COc1cccc2c1C(=O)c1c(O)c3c(c(O)c1C2=O)C[C@@](O)(C(=O)CO)C[C@@H]3O[C@H]1C[C@H](N)[C@H](O)[C@H](C)O1` [doxorubicine] belongs “dose- dependent inhibitor effect”.
Regarding `OO` [hydrogen peroxide], in the data set on DNA (plasmid 2959 bp), the “quantity for which the maximum ratio of repair is obtained” value is 0.27 mM.
In the case of `CC(=O)N(O)CCCCCNC(=O)CCC(=O)N(O)CCCCCNC(=O)CCC(=O)N(O)CCCCCN` [mesylate deferroxamine], the “inhibition of the effects of hydrogen peroxide (production of DNA damage)” value in data set [2] is listed as “inhibits totally”.
With `CCn1cc(C(=O)O)c(=O)c2ccc(C)nc21` [nalidixic acid], the “inhibitor effect on the repair activity” value in data set [1] is recorded as “without effect”.
On to Vitamin A, for which, in data set [3], the “antioxidant activity (in words)” value is “no antioxidizing effect”.
